In US20210402002A1, “CONJUGATE” (priority 2018, published 2021):
pEC50, pIC50: −log10 of the molar value.

Experiments:
[1] = system: SKOV-3 ovarian carcinoma cells; experiment: FACS staining of SKOV-3 cells with labeled lectins and Galectins after incubation with glycosylation inhibitors; type: cell-based; conditions: compared to untreated cells; for cell surface sialylation, SNA-I-FITC lectin staining: 100 μM, 3 days; for Galectin ligand expression, LEA-FITC, Galectin-1 and Galectin-3 staining: 50 μM, 4 days
Protocol: SKOV-3 ovarian carcinoma cells (ATCC, Manassas, Va., USA) were cultured according to ATCC's instructions and incubated in the presence of either 50 μM 2-acetamido-2,4-dideoxy-4-fluoro-1,3,6-tri-O-acetyl-D-glucose for 4 days (β-4-F-GlcNAc; Sussex Research, Ottawa, Canada), 100 μM 5-acetamido-3,5-dideoxy-3-fluoro-2,4,7,8,9-penta-O-acetyl-D-erythro-L-manno-2-nonulosonic acid methyl ester (β-3-Fax-Neu5Ac; Tocris Bioscience, Abingdon, United Kingdom) for 3 days, or DMSO carrier control in parallel. After the incubation, cells were stained with fluorescein-labeled lectins SNA-I-FITC for α2,6-sialylation, LEA-FITC for poly-N-acetyllactos-amines (both from EY Labs, San Mateo, Calif., USA), Alexa Fluor 488-conjugated human recombinant Galectin-1, and Alexa Fluor 488-conjugated human recombinant Galectin-3 (both from Abcam, Cambridge, United Kingdom). Cells were washed and stored on ice in the dark until analysed by FACSAriaII flow cytometer.

HSC-2 cancer cells = experiment: FACS staining of HSC-2 cells with lectins, Galectin-1 and Siglec-7 after incubation with glycosylation inhibitors; type: cell-based; conditions: 2 days, compared to untreated cells; for sialylation/Siglec-7 ligand glycosylation, SNA-I and Siglec-7 staining: 200 μM; for Galectin-1 ligand glycosylation, lectin and Galectin-1 staining: 100 μM
Protocol: In another experiment, HSC-2 cancer cells were cultured for two days, after which glycosylation inhibitors were added to the cell culture medium: 200 μM β-3-Fax-Neu5Ac and 100 μM β-4-F-GlcNAc. The cells were then cultured for 2 days with inhibitors. In parallel, untreated cells were cultured in normal cell culture medium. For flow cytometry analysis cells were detached with trypsin, washed, and stained with FITC-conjugated lectins, AlexaFluor488-conjugated Galectin-1 and recombinant human Siglec-7 (R&D Systems) at +4° C. for 30-45 minutes (the Siglec-samples were further stained with AlexaFluor488-conjugated anti-human IgG antibody at +4° C. for 30-45 minutes). FACS was performed as above.

SKBR-3 cells [2] = experiment: ADCC assay (LDH cytotoxicity) with SKBR-3 cells pre-incubated with glycosylation inhibitors; type: cell-based
Protocol: (§1) SKBR-3 and SKOV-3 cells were cultured on 96-well plates in recommended conditions and incubated with or without glycosylation inhibitors or ADCs for four days as described above. […] After 3.5 h at +37° C., cytotoxicity was assessed with commercial lactate dehydrogenase assay kit (Cytotoxicity detection kit (LDH), Thermo Fischer Scientific) and the cytotoxicities were calculated as proportion of killed cells (%, average of three parallel wells).

SKOV-3 cells = experiment: ADCC assay (LDH cytotoxicity) with SKOV-3 cells pre-incubated with glycosylation inhibitors; type: cell-based
Protocol: as §1

SKBR-3 cells [3] = experiment: N-glycan profiling by MALDI-TOF MS, high-mannose N-glycans (mannosidase I inhibition); type: cell-based; conditions: 10 μM, four days, control cells 7.07
SKBR-3 cells [4] = system: SKBR-3 cells
egg embryos = experiment: Embryo toxicity in the CAM in vivo trial (% alive egg embryos); design: species or system chicken; conditions: alive egg embryos at end of study; same dosing; PBS control 83
Protocol: (§2) The study was performed by Inovotion SAS (La Tronche, France) as follows: Fertilized chicken eggs were incubated at 37.5° C. with 50% relative humidity for 9 days (E9), when the chorioallantoic membrane (CAM) was dropped down by drilling a small hole through the eggshell into the air sac, and a 1 cm^2 window was cut in the eggshell above the CAM. The NCI-N87 cell line was cultivated in RPMI-1640 medium supplemented with 10% FBS and 1% penicillin/streptomycin. On day E9, cells were detached by trypsin, washed with complete medium and suspended in graft medium. An inoculum of 2 million cells was added onto the CAM of each egg. […] On day 18 (E18) the upper portion of the CAM was removed, washed in PBS and then directly transferred in PFA (fixation for 48 h). The tumors were then carefully cut away from normal CAM tissue and weighed. Eggs were checked at each treatment time, or at least every two days, for viability during the study. At the end of the study, the number of dead embryos was counted and combined with the observation of eventual visible macroscopic abnormalities (observation done during the sample collection) to evaluate the toxicity.

[5] = system: NCI-N87 cancer cell line tumors; experiment: In vivo efficacy trial, tumors on chicken egg chorioallantoic membrane (CAM); conditions: day E18, trastuzumab and tunicamycin-ADC single dose 2.5 mg/kg, pembrolizumab […] five doses, PBS control 32.2
Protocol: as §2

HER2 = experiment: Inhibition of HER2 glycoprotein N-glycosylation in SKBR-3 cells (SDS-PAGE, anti-HER2 immunoblot); type: cell-based, human
Description: After six days' culture, the cells were lysed and samples from each treatment were subjected to SDS-PAGE and immunoblotting with anti-HER2 antibody (anti-human ErbB2/Her2 goat polyclonal antibody AF1129, R&D Systems) with standard procedures.

[6] = second assay, SKBR-3, 50 μM inhibitor and trastuzumab only, no effector cells
[7] = second assay, SKBR-3, 50 μM inhibitor, trastuzumab and effector cells applied
[8] = SKOV-3, 50 μM inhibitor and trastuzumab only, no effector cells
[9] = SKOV-3, 50 μM inhibitor, trastuzumab and effector cells applied

COC(=O)C1(OC(C)=O)O[C@@H]([C@H](OC(C)=O)[C@@H](COC(C)=O)OC(C)=O)[C@H](NC(C)=O)[C@@H](OC(C)=O)[C@H]1F (stereo partly drawn) [P-3Fax-Neu5Ac, 5-acetamido-3,5-dideoxy-3-fluoro-2,4,7,8,9-penta-O-acetyl-D-erythro-L-manno-2-nonulosonic acid methyl ester]
cell surface sialylation, SNA-I-FITC lectin staining [1]: effective inhibition
cell surface sialylation, SNA-I-FITC lectin staining ([1]; listed as β-3-Fax-Neu5Ac): clearly decreased
sialylation/Siglec-7 ligand glycosylation, SNA-I and Siglec-7 staining (HSC-2 cancer cells): effective inhibition
sialylation/Siglec-7 ligand glycosylation, SNA-I and Siglec-7 staining (HSC-2 cancer cells; listed as β-3-Fax-Neu5Ac): clearly decreased
absorbance reading in the cytotoxicity assay (SKBR-3 cells [2]; third assay, SKBR-3, 50 μM inhibitor, trastuzumab and effector cells applied): about 0.7

CC(=O)N[C@H]1C(OC(C)=O)O[C@H](COC(C)=O)[C@@H](F)[C@@H]1OC(C)=O (stereo partly drawn) [P-4F-GlcNAc, 2-acetamido-2,4-dideoxy-4-fluoro-1,3,6-tri-O-acetyl-D-glucose]
Galectin ligand expression, LEA-FITC, Galectin-1 and Galectin-3 staining [1]: effective inhibition
Galectin ligand expression, LEA-FITC, Galectin-1 and Galectin-3 staining ([1]; listed as β-4-F-GlcNAc): clearly decreased
Galectin-1 ligand glycosylation, lectin and Galectin-1 staining (HSC-2 cancer cells): effective inhibition
Galectin-1 ligand glycosylation, lectin and Galectin-1 staining (HSC-2 cancer cells; listed as β-4-F-GlcNAc): clearly decreased
cytotoxicity (proportion of killed cells) (SKBR-3 cells [2]; [6]): 1-2%
cytotoxicity (proportion of killed cells) (SKBR-3 cells [2]; [7]): about 16%
cytotoxicity (proportion of killed cells) (SKOV-3 cells; [8]): no cytotoxicity was observed
cytotoxicity (proportion of killed cells) (SKOV-3 cells; [9]): about 5%

O=C1N[C@@H]2[C@@H](O)[C@@H](O)[C@H](O)[C@@H](CO)N2C1=O [kifunensine]
average number of mannose residues (Man) in the Man5-9GlcNAc2 glycan signal series (SKBR-3 cells [3]): 8.56
cytotoxicity (proportion of killed cells) (SKBR-3 cells [2]; first assay, SKBR-3, 10 μM inhibitor and trastuzumab only, no effector cells): no cytotoxicity was detected
cytotoxicity (proportion of killed cells) (SKBR-3 cells [2]; first assay, SKBR-3, 10 μM inhibitor, trastuzumab and effector cells applied): 18.5%
cytotoxicity (proportion of killed cells) (SKBR-3 cells [2]; [6]): 2-3%
cytotoxicity (proportion of killed cells) (SKBR-3 cells [2]; [7]): about 19%
cytotoxicity (proportion of killed cells) (SKOV-3 cells; [8]): no cytotoxicity was observed
cytotoxicity (proportion of killed cells) (SKOV-3 cells; [9]): about 2%

omalizumab-MC-VC-PAB-DMAE-tunicamycin DAR=8 ADC: DAR=8 conjugate of MC-VC-PAB-DMAE-tunicamycin V prepared from omalizumab (negative control antibody)
cytotoxicity to the cells in the viability assay (SKBR-3 cells [4]; five or eight days, up to 1 μM): no apparent toxicity

pembrolizumab: pembrolizumab (Keytruda, Merck)
% alive (egg embryos): 58%
Mean tumor size [5]: 34.9 mg

tunicamycin
pIC50 (SKBR-3 cells [4]; read-out: IC50 (cellular viability), six days): 6.52
cytotoxicity (proportion of killed cells) (SKBR-3 cells [2]; first assay, SKBR-3, 1 μM inhibitor and trastuzumab only, no effector cells): no cytotoxicity was detected
cytotoxicity (proportion of killed cells) (SKBR-3 cells [2]; first assay, SKBR-3, 1 μM inhibitor, trastuzumab and effector cells applied): 40.4%
cytotoxicity (proportion of killed cells) (SKBR-3 cells [2]; second assay, SKBR-3, 0.5 μM inhibitor and trastuzumab only, no effector cells): about 4%
cytotoxicity (proportion of killed cells) (SKBR-3 cells [2]; second assay, SKBR-3, 0.5 μM inhibitor, trastuzumab and effector cells applied): about 46%
cytotoxicity (proportion of killed cells) (SKOV-3 cells; SKOV-3, 0.5 μM inhibitor and trastuzumab only, no effector cells): about 2%
cytotoxicity (proportion of killed cells) (SKOV-3 cells; SKOV-3, 0.5 μM inhibitor, trastuzumab and effector cells applied): about 5%
pEC50 (HER2; six days' incubation, immunoblot, read-out: EC50 (concentration with 50% efficacy) of decrease of relative MW of HER2, defective N-glycosylation): 7.15
decrease of relative MW of HER2 upon inhibition of N-glycosylation (HER2; six days, SDS-PAGE): about 15 kDa
